Data taken from US20240059729A1, “MULTIFUNCTIONAL CYCLIC DINUCLEOTIDE AND USE THEREOF” (TYLIGAND BIOSCIENCE (SHANGHAI) LIMITED, priority 2020, published 2024).
Structures can show the parent of a compound that is named as a salt.

Assay: Discovery and identification of metabolites in hepatocytes
Assay type: in vitro ADME, mouse, rat, dog, monkey, human
Conditions: 5 species of hepatocytes, 240 min; FIG. 4-B
Source text: The main metabolites of the compounds of the invention in 5 species (mouse, rat, dog, monkey, human) of hepatocytes were similarly identified according to standard methods of in vitro metabolic stability studies conventional in the art, for example (Kems, Edward H. and Di Li (2008). Drug-like Properties: Concepts, Structure Design and Methods: From ADME to Toxicity Optimization, San Diego: Academic Press; Di, Li et al, Optimization of a High Throughput Microsomal Stability Screening Assay for Profiling Drug Discovery Candidates, J Biomol Screen. 2003, 8(4), 453).
The hepatocytes used in the experiment: human hepatocytes (SHQY, Cat. #BQHPCH10, Lot. #HEP190006-TA05), dog hepatocytes (BioIVT, Cat. #M00205, Lot. #ZMB); monkey hepatocytes (XENOTECH, Cat. #PPCH2000, Lot. #2010022), rat hepatocytes (SHQY, Cat. #BQR1000⋅H15, Lot. #HEP134049), and mouse hepatocytes (BioIVT, Cat. #M005052, Lot. #MEO).
A HI hepatocyte maintenance medium (BIOIVT, Cat. #Z99009; Lot. #C02060C) was pre-warmed to 37° C. Cryopreserved hepatocyte tubes were removed from a liquid nitrogen tank and immediately placed in a shaking water bath at 37±1° C. for 2 minutes±15 seconds. […] The hepatocytes were counted and then the cell suspension was diluted in HI medium to the appropriate density (viable cell density=2×10^6 cells/mL). […]

Compound: Nc1nc2c(ncn2[C@@H]2O[C@@H]3CO[P@@](=O)(S)OC4C(F)[C@H](n5cnc6c(N)nc(Cl)nc65)O[C@@H]4CO[P@@](=O)(S)OC2C3O)c(=O)[nH]1 (stereo partly drawn) [Example 10, (2′,3′)-cyclo-(Rp,Rp)-[2′-O-phosphorothioate-diester-guanosine]-[3′-O-phosphorothioate-diester-2-chloro-2′-deoxy-2′-fluoro-beta-adenosine] diammonium salt]
- Main metabolite in hepatocytes: Clofarabine
